In one assay the test system is TEX cells. The experiment in a line: ROS generation (DCF-DA, DHE) in TEX cells. Format: cell-based, human. The note with it: time-points up to 24 hours. Here is the method: FIG. 4. […] (A) Cells from TEX, OCI-AML2 and two primary AML patients were treated with increasing concentrations (2.5 μM and 5 μM) of tigecycline for 36 and 48 hours of tigecycline. Total proteins were extracted and analyzed by western blotting for Cox-1, Cox-2, Cox-4, grp78, XIAP, actin and tubulin. (B) TEX and AML patient cells were treated with increasing concentrations (2.5 μM and 5 μM) of tigecycline. Cox-1, Cox-2, and Cox-4 mRNA expression relative 18S was determined by quantitative RT-PCR. Data is shown as mean±SD. (C) TEX cells were treated with increasing concentrations of tigecycline and chloramphenicol (CAP) for 72 hours. Complex I, II and IV enzyme activity relative to citrate synthase activity was determined as described in materials and methods. (D) Cells from TEX, primary AML patients, and normal donors were treated with increasing concentrations of tigecycline. Mitochondrial membrane potential (ΔΨ) was determined by staining cells with JC-1 dye, and flow cytometry analysis (Red/Green ratio). Reactive oxygen species generation (ROS) was determined by staining with h2-DCFDA and Dihydroethidium (DHE).
A byproduct of the mitochondrial enzyme activities of the electron transport chain is the generation of reactive oxygen species (ROS). […] Therefore, the role of tigecycline on ROS generation in leukemia cells by analyzing hydrogen peroxide ions (H2O2) using a dichlorofluorescein dye (DCF-DA), and superoxide anions using dihydroethidium (DHE) was examined.

Assay [1] concerns acute myeloid leukemia (AML). To be noted: 13 patients treated; cited from earlier work.

For the compound `CC[C@H]1/C=C/C=C/C[C@@H](C)[C@H](O)[C@@](C)(O)C(=O)[C@@H](C)[C@H](O)[C@@H](C)C(=O)[C@@H](C)[C@H](O)[C@@H](C)/C=C/C(=O)O[C@@H]2[C@H](C)[C@H](CC1)O[C@]1(CC[C@H](C)[C@H](C[C@@H](C)O)O1)[C@H]2C` [oligomycin], the ROS generation result in the assay with TEX cells is on record as “rapid increases”.
As for `NC(=O)c1ncn([C@@H]2O[C@H](CO)[C@@H](O)[C@H]2O)n1` [ribavirin], in assay [1], the complete remission is recorded as 1 and the partial remissions is 2.
For `C=C(C)[C@H]1Cc2c(ccc3c2O[C@@H]2COc4cc(OC)c(OC)cc4[C@@H]2C3=O)O1` [rotenone], in the assay on TEX cells, the ROS generation result is on record as “rapid increases”.
For antimycin, the ROS generation entry in the assay on TEX cells is recorded as “rapid increases”.

Source of the values: patent US20140221301A1, “COMBINATION TREATMENT FOR CANCER” (priority 2011, published 2014).
